Square brackets hold non-standard residues; d marks the D form. Peptide text beside a SMILES is read from it. Aoe = N[C@@H](CCCCCC(=O)[C@@H]1CO1)C(=O)O
Experiments:
[1] = tested on: cord blood CD34+CD90+ cells; conditions: cited from earlier work
[2] = tested on: primary human CD34+ cells from PBSC; test: Screening of compounds which increase CD34+CD90+ cells (high throughput flow cytometry); assay type: cell-based; conditions: for CD34+CD90+ population compared with that of DMSO treated CD34+ cells: PBSC CD34+ cells, 4 or 5-day culture with cytokines (CC100), FIG. 1A; for absolute number of CD34+CD90+ cells: screen, compared with other compounds, FIG. 1B
Description: Cells were stained with antihuman CD34 monoclonal antibody conjugated to phycoerythrin (PE), or allophycocyanin (APC), antihuman CD90 conjugated fluorescein isothiocyanate (FITC) or APC, CD38 APC, CD 3 tri-color (TC), CD19 TC, CD11b TC, CD41 TC, CD45 FITC and mouse CD45 APC. The flow cytometry data were collected using FACS Calibur flow cytometer (Becton Dickinson, San Jose, Calif., USA) or and analysed by using FLOWJO software.
To identify or confirm the molecules that expand CD34+CD90+ cells, the Inventors developed an assay using primary human CD34+ cells from PBSC and evaluated CD34 and CD90 expression by high throughput flow cytometry after a 4 or 5-day culture.
Using this assay, the Inventors screened FDA approved 446 compounds and 14 small molecule drugs including a panel of epigenetic modifiers as shown in Table 2. Human PBSC CD34+ cells were purified and cultured in IMDM with fetal bovine serum (FBS; GIBCO; final concentration 30%) and CC100 (a CD34 maintaining culture medium containing stem cell factor; SCF, Flt3 ligand; FL, Interleukin-3; IL3 and Interleukin-6; IL6; Stem Cell Technologies).

CD34+ cells [3] = test: UM171 effect on division of CD34+ cells (total cell numbers); assay type: cell-based; conditions: 50 nM to 500 nM (1 uM); commercial and synthesized UM171
CB CD34+ cells = test: Engraftment of cultured CD34+ cells in NSG mice (SCID repopulating activity); assay type: in vivo
Description: NSG (NOD.Cg-Prkdcscid Il2rgtm1Wjl/SzJ, The Jackson Laboratory, ME, USA) mice were bred and maintained in the Children's Hospital Boston animal facility. All animal work has been approved by and done according to the guidelines of the IACUC under protocol 10-101832. The CB CD34+ cells treated with wild type-peptide and scrambled-peptide were injected intravenously via the tail vein into sub-lethally irradiated (220 rads) 8 to 16-week-old NSG mice. Engraftment was performed within 24 h after irradiation. Peripheral blood (PB) chimerism was monitored at 2 and 8 weeks post transplantation. Bone marrow (BM) chimerism was monitored at 8 weeks post transplantation. […] The percentage of human CD45+ cells was calculated as follows: % human CD45+ cells=No. human CD45+ cells/(No. human CD45+ cells + No. mouse CD45+ cells)×100. […]
Based on in vitro phenotypic analysis described above, The Inventors transplanted cells after culture for 5 or7 days with cytokine alone or TSA into NSG mice to evaluate immunodeficient (SCID) repopulating activity (SRA) as a measure of enhanced HSPC function. Because Vanheuden et al, reported that severe combined immunodeficient (SCID) repopulating activity (rSRA) is mediated by CD34+CD38CD90+CD45RA− cells after in vitro culture, the Inventors first analyzed SRA activity in peripheral blood (PB) 2 weeks after transplant.

PBSC CD34+ cells [4] = test: Real-time PCR of stem cell related genes; assay type: cell-based, human; conditions: 3 days of culture, relative to DMSO, p<0.05
Description: Inventors prepared RNA from cells treated with wild-type or scrambled peptide using TRIzol (Invitrogen). The Inventors synthesized cDNA using iScript cDNA Synthesis kit (Bio-Rad, CA, USA). To quantitate the level of mRNAs expression, The Inventors carried out polymerase chain reaction (PCR) amplification using iScript one-step RT-PCR kit with SYBER Green (Bio-Rad) and the PCR products were detected by use of SYBR green technology (ABI, Foster City, Calif., USA). GAPDH was used as an endogenous control. All samples were run in duplicate. Thermal cycler conditions were 50° C. for 2 minutes, 95° C. for 10 minutes, and 45 cycles of 95° C. for 0.30 minutes and 60° C. for 1 minute. Results were obtained as threshold cycle (Ct) values and normalized gene expression with GAPDH. Data were analyzed based on 2-ΔΔCT method using CFX Manager software (Bio-Rad). For QPCR primers see Table 1.
Next, to investigate the molecular mechanism responsible for the expansion of functional HSCs and HSPC observed following TSA treatment, the Inventors examined expression levels of a number of genes involved in self-renewal or differentiation of stem cells using realtime PCR.

PBSC CD34+ cells [5] = test: Ex vivo culture of PBSC CD34+ cells with TSA or MS275 (CD34+CD90+ expansion, cell growth); assay type: cell-based, human; conditions: for expression of CD34+CD90+ cells after one day exposure: 24 hours exposure then washed or not washed, evaluated on day 3 and day 5; for growth rate compared with DMSO / cell growth (cell number) of CD34+ cells: FIG. 3A; for cell growth (cell number) of CD34+ cells: mean±SDV of three experiments; for absolute number of CD34+CD90+ cells: from day 5 to day 7
CD34+ cells [6] = test: CFSE labeling to assess cell division; assay type: cell-based, human; conditions: by day 5, CFSE
Description: Primary CD34+ cells were labeled for 10 minutes at 37° C. with 0.5 uM of carboxyfluorescein diacetate succinimidyl ester (CSFE; Invirtogen, NY, USA) in PBS. After […] of culture, cell were labeled with CD34 PE and analyzed for a progressive decline of fluoredcence intensity of CSFE using FACSCalibur flow cytometer.
To assess whether the lower total nucleated cell number observed in TSA treated culture was due to a delay in differentiation or proliferation, the Inventors performed a cell-division-monitoring dye carboxyfluorescein succinimidyl ester (CFSE) assay, a fluorescent cytoplasmic dye which allowed counting of cell divisions of CD34+ cells after in vitro culture. While 66.0% of non-treated CD34+ cells divided at least more than 4 times by day 5, only 9.02% of TSA treated cells went through a similar number of cell divisions (FIG. 3B).
The Inventors then investigated whether TSA treatment led to increased CD34+CD90+ cells through self-renewal proliferation as assessed by surface markers. Using CD34+CD90− cells as a control population, the cell division profile of CD34+CD90+ cells upon TSA treatment was analyzed using the CSFE assay after 5 and 7 days of in vitro culture.

PBMC CD34+ cells [7] = test: In vitro colony formation in methylcellulose (CFU assay); assay type: cell-based, human; conditions: eight days after plating
Description: Tubes of MethoCult® H4434 (Stem Cell Technologies) medium were thawed overnight in a 4° C. refrigerator. The next morning CB CD34+ cells were prepared at 10× the final concentration required. Cell suspensions of 2000 cells per 0.3 mL were prepared. Cells were added to 3 mL of MethoCult® medium for duplicate cultures. A 16 gauge blunt-end needle attached to a 3 cc syringe was used to dispense the cells and MethoCult® medium into culture dishes. 1.1 mL of cells was dispensed per 35 mm dish. The two dishes were placed into a 100 mm petri dish and a third, uncovered 35 mm dish containing 3 mL of sterile water was also added. All 3 dishes were then covered within the 100 mm petri dish. […] […] CFUs were counted under the microscopy.
Since the CD34+CD90+ cells are a CD34+ subpopulation with severe combined immunodeficient (SCID) repopulating activity (SRA), The Inventors next test whether the preferential expansion of these cells mediated by TSA or MS-275 treatment can lead to increased hematopoietic differentiation/proliferation in vitro and SRA engraftment in vivo. The Inventors first treated PBMC CD34+ cells with TSA or MS-275 treatments followed by assessment of in vitro colony formation in methylcellulose. […] To quantify large and small colonies, The Inventors classified as large as >50 and small as 5-50 clusters, respectively.

PBMC CD34+ cells [8] = test: Lentiviral transduction (GFP vector) of CD34+ cells; assay type: cell-based, human
Description: Lentiviral particles were generated by transient co-transfection of 293T cells with the lentiviral vectors pLL3.7, pHR'8.9ΔVPR and pCMV-VSVG. CD34+ cells were infected in medium containing lentiviral particles and 8 μg/ml protamin. The culture medium was then removed and replaced with fresh media.
Next, the Inventors investigated whether expansion of CD34+CD90+ cells by TSA could affect the lentiviral transduction efficacy. A transfer vector encoding green fluorescent protein (GFP) was used for evaluation of lentiviral transduction. PBMC CD34+ cells were cultured with or without TSA for 3 days, followed by lentiviral transduction with protamin twice for 48 hours (FIG. 15A).

CD34+ cells [9] = test: Annexin V staining (apoptosis); assay type: cell-based, human; conditions: day 3, 5 and 7
Description: To investigate whether the lower total nucleated cell number observed in TSA treated culture was possibly due to apoptosis, annexin V staining with TSA, MS275 or DMSO treated cells on day 3, 5 and 7 was performed.

O=C1N[C@@H](Cc2ccccc2)C(=O)N2CCC[C@@H]2C(=O)N[C@@H](CCCCCC(=O)[C@@H]2CO2)C(=O)N[C@H]1Cc1ccccc1 [trapoxin] (cyclo(FF[dP][Aoe]))
expansion of CD34+CD90+ cells (reported) [1]: reported to expand CD34+CD90+ cells

O=C(CCCCCCC(=O)Nc1ccccc1)NO [SAHA]
CD34+CD90+ population compared with that of DMSO treated CD34+ cells [2]: expanded CD34+CD90+ population

Cn1nnc(-c2ccc3c(c2)[nH]c2nc(Cc4ccccc4)nc(NC4CCC(N)CC4)c23)n1 (stereo not drawn) [UM171]
total cell numbers (CD34+ cells [3]): very similar

CC(/C=C/C(=O)NO)=C\[C@@H](C)C(=O)c1ccc(N(C)C)cc1 [TSA, trichostatin]
percentage of human CD45+ engraftment in peripheral blood (CB CD34+ cells; 2 weeks after transplant, day 5 progeny of 2×10^4 CB CD34+ cells, vs cytokine alone): higher percentage of human CD45+ engraftment
marrow-repopulating potential (human CD45+ cell engraftment in PB and BM) (CB CD34+ cells; 8 weeks after transplantation): enhances the marrow-repopulating potential
levels of transcripts for GATA1, GATA2, HOXA9, HOXB4, PTEN, SALL4, p53, TPO and CD34 genes (PBSC CD34+ cells [4]): higher levels of transcripts
expansion of CD34+CD90+ cells (reported) [1]: reported to expand CD34+CD90+ cells
expression of CD34+CD90+ cells after one day exposure (PBSC CD34+ cells [5]): limit the expression of CD34+CD90+ cells
growth rate compared with DMSO (PBSC CD34+ cells [5]): about 2 times lower
cell growth (cell number) of CD34+ cells (PBSC CD34+ cells [5]): 28.3×10^4±0.49
expansion of CD34+CD90+ cells compared with DMSO treated cells (PBSC CD34+ cells [5]; day 3, day 5 and day 7, p<0.05): preferential expansion of CD34+CD90+ cells
absolute number of CD34+CD90+ cells (PBSC CD34+ cells [5]): increased
CD34+CD90+ cells less divided than CD34+CD90− cells (CD34+ cells [6]; TSA treatment): 31.4%
CD34+CD90+ cells more divided than CD34+CD90− cells (CD34+ cells [6]; TSA treatment): about 66.7%
CD34+ cells divided at least more than 4 times (CD34+ cells [6]): 9.02%
size of colonies derived from CFU-GM compared with control group (PBMC CD34+ cells [7]): much larger than control group
proportion of large (>50 clusters) and small (5-50 clusters) colonies (PBMC CD34+ cells [7]; FIG. 13B): gave mainly rise to large colonies
lentiviral transduction for CD34+ cells ex vivo (PBMC CD34+ cells [8]): promoted the lentiviral transduction
percentage of CD34+GFP+ cells (PBMC CD34+ cells [8]; 3 days culture with TSA, then lentiviral transduction, vs cells without treatment): higher than that of cells without treatment
apoptotic cells (annexin V) (CD34+ cells [9]; 50 nM): did not significantly increased apoptotic cells
CD34+CD90+ population compared with that of DMSO treated CD34+ cells [2]: expanded CD34+CD90+ population
absolute number of CD34+CD90+ cells [2]: expanded the absolute number of CD34+CD90+ cells more than that of other compounds

CCCC(CCC)C(=O)O [Valproic acid]
expansion of CD34+CD90+ cells (reported) [1]: reported to expand CD34+CD90+ cells

COc1cc2c(NC3CCN(C(C)C)CC3)nc(C3CCCCC3)nc2cc1OCCCN1CCCC1 [UNC0638]
CD34+CD90+ population compared with that of DMSO treated CD34+ cells [2]: expanded CD34+CD90+ population

Nc1ccccc1NC(=O)c1ccc(CNC(=O)OCc2cccnc2)cc1 [MS275]
expression of CD34+CD90+ cells after one day exposure (PBSC CD34+ cells [5]): limit the expression of CD34+CD90+ cells
growth rate compared with DMSO (PBSC CD34+ cells [5]): about 2 times lower
cell growth (cell number) of CD34+ cells (PBSC CD34+ cells [5]): 16.7×10^4±1.06
absolute number of CD34+CD90+ cells (PBSC CD34+ cells [5]): increased
size of colonies derived from CFU-GM compared with control group (PBMC CD34+ cells [7]): much larger than control group
apoptotic cells (annexin V) (CD34+ cells [9]; 500 nM): did not significantly increased apoptotic cells
CD34+CD90+ population compared with that of DMSO treated CD34+ cells [2]: expanded CD34+CD90+ population
absolute number of CD34+CD90+ cells [2]: expanded the absolute number of CD34+CD90+ cells more than that of other compounds

CC(C)n1cnc2c(NCCc3ccc(O)cc3)nc(-c3csc4ccccc34)nc21 [SR1]
CD34+CD90+ population compared with that of DMSO treated CD34+ cells [2]: expanded CD34+CD90+ population

Reference: US20200121721A1, “METHODS FOR GENETIC MODIFICATION OF HEMATOPOIETIC CELLS” (THE BRIGHAM AND WOMEN'S HOSPITAL, INC., priority 2014, published 2020)
